Results on 12 compounds are retold here after ChEMBL document CHEMBL1667829, “Analysis of β-amino alcohols as inhibitors of the potential anti-tubercular target N-acetyltransferase” (Bioorg Med Chem Lett, 2011).

pIC50: −log10 of the molar value. Activity calls are given as the source filed them. No cut-off for these calls is given here. A value given as a limit tells only on which side of the number the result lay.

Assay [1] has as its target T1, Arylamine N-acetyltransferase (Pseudomonas aeruginosa (strain ATCC 15692 / PAO1 / 1C / PRS 101 / LMG12228), UniProt Q9HUY3).
T1 sequence (Q9HUY3 whole entry): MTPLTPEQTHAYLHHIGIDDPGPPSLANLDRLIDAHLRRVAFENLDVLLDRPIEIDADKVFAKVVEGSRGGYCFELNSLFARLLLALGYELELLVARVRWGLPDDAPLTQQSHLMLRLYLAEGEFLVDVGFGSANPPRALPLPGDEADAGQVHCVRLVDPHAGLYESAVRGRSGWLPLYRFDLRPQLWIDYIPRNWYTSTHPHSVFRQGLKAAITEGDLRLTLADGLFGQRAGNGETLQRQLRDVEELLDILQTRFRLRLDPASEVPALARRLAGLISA
Nature of the assay: Inhibition of Pseudomonas aeruginosa NAT using 5-aminosalicylate substrate by acetyl-coA hydrolysis assay.

Assay [2] in a line: Inhibition of Mycobacterium marinum NAT using isoniazed substrate by acetyl-coA hydrolysis assay.
Assay [3] has as its target T2, Arylamine N-acetyltransferase (Mycolicibacterium smegmatis, UniProt O86309).
T2 sequence (O86309 whole entry): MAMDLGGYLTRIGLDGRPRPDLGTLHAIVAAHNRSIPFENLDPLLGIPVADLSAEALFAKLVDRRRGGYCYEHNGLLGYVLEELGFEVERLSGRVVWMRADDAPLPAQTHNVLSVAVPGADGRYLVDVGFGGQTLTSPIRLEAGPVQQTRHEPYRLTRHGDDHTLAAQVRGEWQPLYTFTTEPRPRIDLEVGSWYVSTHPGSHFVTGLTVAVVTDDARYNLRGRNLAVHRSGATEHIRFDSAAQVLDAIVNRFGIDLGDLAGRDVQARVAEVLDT
Description: Inhibition of Mycobacterium smegmatis NAT using 5-aminosalicylate substrate by acetyl-coA hydrolysis assay.

For assay [4], the target named is T2, Arylamine N-acetyltransferase. Nature of the assay: Inhibition of Mycobacterium smegmatis NAT using isoniazed substrate by acetyl-coA hydrolysis assay.
Assay [5] relates to Mycobacterium marinum. Description: Inhibition of Mycobacterium marinum NAT using isoniazed substrate at 30 uM by acetyl-coA hydrolysis assay.
The nature of assay [6]: Inhibition of Mycobacterium marinum NAT using 5-aminosalicylate substrate by acetyl-coA hydrolysis assay.
In assay [7] the test system is Mycobacterium marinum. Nature of the assay: Antimicrobial activity against Mycobacterium marinum at 80 ug/ml. In kind it is functional, organism-based.
The subject of assay [8] is Mycobacterium marinum. Description: Antimicrobial activity against Mycobacterium marinum at 100 ug/ml. In kind it is functional, organism-based.
Assay [9] deals with T1, Arylamine N-acetyltransferase. Description: Inhibition of Pseudomonas aeruginosa NAT using isoniazed substrate by acetyl-coA hydrolysis assay.
Assay [10] deals with Mycobacterium tuberculosis. Description: Antimicrobial activity against Mycobacterium tuberculosis at 50 ug/ml relative to control. In kind it is functional.
Assay [11] is described as follows: Inhibition of Mycobacterium marinum NAT using hydralazine substrate by acetyl-coA hydrolysis assay.

What is called pIC50 is the IC50 on a negative log10 scale, so that one unit is a factor of ten. Lower therefore signals a large IC50. Broadly, the inhibition is the share of the control response that was lost under treatment. A higher inhibition goes with strong suppression. In the case of `CC1(C)NC(=O)N(CC(O)COc2ccc(C3CCCC3)cc2)C1=O` (configuration not stated), the pIC50 in assay [1], in assay [2], in assay [3], in assay [4], in assay [6] and in [9] was under 4.30 throughout. Besides, the inhibition in assay [5] came out at 0%. For the same compound, the outcome in [7] and in assay [8] was inactive.

In assay [5], `CC1(C)NC(=O)N(CC(O)COc2ccccc2[N+](=O)[O-])C1=O` (configuration not stated) had an inhibition of 4%.

`Cc1ccccc1OCC(O)CN1C(=O)NC(C)(C)C1=O` (configuration not stated) registered an inhibition in assay [5] of 0.5%.

In turn, `CC1(C)NC(=O)N(CC(O)COc2ccccc2F)C1=O` (configuration not stated) had an inhibition in [5] of 0%.

As for `CC1(C)NC(=O)N(CC(O)COc2ccc(-c3ccccc3)cc2)C1=O` (configuration not stated), the inhibition in [5] was determined as 8%.

In the case of `O=C1NC(c2ccccc2)C(=O)N1CC(O)COc1ccccc1` (configuration not stated), the inhibition in [5] came out at 0%.

Consider `CC1(C)NC(=O)N(CC(O)COc2ccccc2-c2ccccc2)C1=O` (configuration not stated), for which the inhibition in [5] is 24%.

Take `O=C1CNC(=O)N1CC(O)COc1ccccc1` (configuration not stated): in assay [5], the inhibition is 0%.

The compound `CC1(C)NC(=O)N(CC(O)COc2ccccc2-c2cccc3ccccc23)C1=O` (configuration not stated) registered an inhibition in assay [5] of 28%.

Regarding `CC1(C)NC(=O)N(CC(O)COc2ccccc2C2CCCC2)C1=O` (configuration not stated), the negative-log IC50 (pIC50) in assay [1] is 4.79; in assay [3] it was 4.75; in [4], 5.03; in [11], 5.82; in [6], 4.48; in assay [9], 4.43. In assay [10], this compound showed an inhibition at 50 µg/mL of 20%. Further, in assay [5], the inhibition is 58%.

The compound `CC1(C)NC(=O)N(CC(O)COc2cccc(-c3ccccc3)c2)C1=O` (configuration not stated) yielded an inhibition in assay [5] of 6%.

Turning to `CC1(C)NC(=O)N(CC(O)COc2ccccc2Br)C1=O` (configuration not stated), the inhibition in [5] came to 24%.
